# Target: Nitric oxide synthase, inducible (Homo sapiens, UniProt P35228)
# Assay: Inhibition of inducible nitric oxide synthase in activated macrophages
# Sequence of Nitric oxide synthase, inducible (P35228 whole entry): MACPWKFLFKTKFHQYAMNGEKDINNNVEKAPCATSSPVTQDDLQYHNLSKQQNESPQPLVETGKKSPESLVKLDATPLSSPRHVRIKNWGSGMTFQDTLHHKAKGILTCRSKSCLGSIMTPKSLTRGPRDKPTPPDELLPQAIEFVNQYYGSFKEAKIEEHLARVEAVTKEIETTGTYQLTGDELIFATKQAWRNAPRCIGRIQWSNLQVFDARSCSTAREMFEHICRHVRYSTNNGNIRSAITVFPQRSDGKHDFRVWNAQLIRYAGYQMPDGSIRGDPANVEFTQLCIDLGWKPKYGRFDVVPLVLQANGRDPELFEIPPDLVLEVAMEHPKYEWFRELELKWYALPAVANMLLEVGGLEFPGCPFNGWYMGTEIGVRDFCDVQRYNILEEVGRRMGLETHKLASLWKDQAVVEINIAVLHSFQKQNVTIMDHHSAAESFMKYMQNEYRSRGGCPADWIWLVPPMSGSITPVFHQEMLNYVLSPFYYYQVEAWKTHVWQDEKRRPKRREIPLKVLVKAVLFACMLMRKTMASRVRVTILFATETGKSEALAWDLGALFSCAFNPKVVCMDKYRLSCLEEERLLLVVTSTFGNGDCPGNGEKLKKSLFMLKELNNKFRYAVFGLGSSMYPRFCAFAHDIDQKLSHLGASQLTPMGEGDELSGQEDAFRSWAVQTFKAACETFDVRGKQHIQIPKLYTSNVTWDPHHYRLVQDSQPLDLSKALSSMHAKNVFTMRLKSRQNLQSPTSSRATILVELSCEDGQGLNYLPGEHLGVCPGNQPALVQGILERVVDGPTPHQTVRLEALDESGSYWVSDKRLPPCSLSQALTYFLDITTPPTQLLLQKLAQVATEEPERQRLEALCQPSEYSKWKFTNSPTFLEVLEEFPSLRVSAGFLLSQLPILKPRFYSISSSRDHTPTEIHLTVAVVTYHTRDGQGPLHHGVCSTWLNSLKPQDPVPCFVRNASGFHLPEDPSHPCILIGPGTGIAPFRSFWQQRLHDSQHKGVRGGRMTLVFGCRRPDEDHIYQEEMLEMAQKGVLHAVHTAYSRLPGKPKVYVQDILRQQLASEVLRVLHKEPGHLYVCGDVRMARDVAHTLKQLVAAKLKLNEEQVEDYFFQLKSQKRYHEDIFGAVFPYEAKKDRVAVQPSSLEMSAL
row,SMILES,IC50 [µM]
1,"CC1(C)CC[C@]2(C(=O)O)CC[C@]3(C)C(C(=O)CC4[C@@]5(C)C=CC(=O)C(C)(C)C5CC[C@]43C)C2C1 (stereo partly drawn) [(4aS,6aR,6bR,12aR)-2,2,6a,6b,9,9,12a-Heptamethyl-10,14-dioxo-1,3,4,5,6,6a,6b,7,8,8a,9,10,12a,12b,13,14,14a,14b-octadecahydro-2H-picene-4a-carboxylic acid]",3.3
2,"CC1(C)CC[C@]2(C(=O)O)CC[C@]3(C)C(=CCC4[C@@]5(C)C=C(C#N)C(=O)C(C)(C)C5CC[C@]43C)C2C1 (stereo partly drawn) [(4aS,6aS,6bR,12aR)-11-Cyano-2,2,6a,6b,9,9,12a-heptamethyl-10-oxo-1,3,4,5,6,6a,6b,7,8,8a,9,10,12a,12b,13,14b-hexadecahydro-2H-picene-4a-carboxylic acid]",0.6
3,"CC1(C)CC[C@]2(C(=O)O)CC[C@]3(C)C(=CC(=O)C4[C@@]5(C)C=C(C#N)C(=O)C(C)(C)C5CC[C@]43C)C2C1 (stereo partly drawn) [(4aS,6aS,6bR,12aS)-11-Cyano-2,2,6a,6b,9,9,12a-heptamethyl-10,13-dioxo-1,3,4,5,6,6a,6b,7,8,8a,9,10,12a,12b,13,14b-hexadecahydro-2H-picene-4a-carboxylic acid]",0.04
4,CC1(C)CC[C@]2(C(=O)O)CC[C@]3(C)C(=CC[C@@H]4[C@@]5(C)CCC(=O)C(C)(C)[C@@H]5CC[C@]43C)[C@@H]2C1 [Oleanonic Acid],37

# The next lines start with the values.
row,IC50 [µM],SMILES
1,> 40,CC1(C)CC[C@]2(C(=O)O)CC[C@]3(C)C(=CC[C@@H]4[C@@]5(C)CC[C@H](O)C(C)(C)[C@@H]5CC[C@]43C)[C@@H]2C1 [Oleanolic acid (OA)(Compound 1)]
2,5.6,"CC1(C)CC[C@]2(C(=O)O)CC[C@]3(C)C(=CCC4[C@@]5(C)C=CC(=O)C(C)(C)C5CC[C@]43C)C2C1 (stereo partly drawn) [(4aS,6aS,6bR,12aR)-2,2,6a,6b,9,9,12a-Heptamethyl-10-oxo-1,3,4,5,6,6a,6b,7,8,8a,9,10,12a,12b,13,14b-hexadecahydro-2H-picene-4a-carboxylic acid]"

# Source: BindingDB's records for doi:10.1016/j.bmcl.2005.03.031 (Dartmouth College, 2005)
